Measurements published in patent US10202361B2, “Pyridazinones as herbicides” (E I DU PONT DE NEMOURS AND COMPANY, priority 2014, dated 2019).
Like-named read-outs stand apart in the source and are kept apart here.

Tests used:
Format in all cases: in vivo
[1] = tested on: crabgrass, Large (large crabgrass, Digitaria sanguinalis); test: Test A pre-/postemergence greenhouse herbicide test; settings: Digitaria sanguinalis, 240 h, 0 to 100 scale (0 no effect, 100 complete control), approx. 10 d, read-out: Plant response rating, Crabgrass, Large; for pest or weed control at 125 g/ha: 125 g ai/ha; for pest or weed control at 500 g/ha: 500 g ai/ha
In short: (§1)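 Injury was scored visually on a 0–100 scale (100 = complete control) about 10 d after spraying, relative to untreated plants. Compounds were formulated in solvent plus surfactant and applied as soil spray preemergence or to 2–10 cm, one- to two-leaf seedlings postemergence.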

[2] = tested on: wheat (Triticum aestivum); test: as above; settings: Triticum aestivum, 240 h, 0 to 100 scale (0 no effect, 100 complete control), approx. 10 d, read-out: Plant response rating, Wheat; for plant injury at 125 g/ha: 125 g ai/ha; for plant injury at 500 g/ha: 500 g ai/ha
In short: as §1

[3] = tested on: foxtail, giant (giant foxtail, Setaria faberii); test: as above; settings: Setaria faberi, 240 h, 0 to 100 scale (0 no effect, 100 complete control), approx. 10 d, read-out: Plant response rating, Foxtail, Giant; for pest or weed control at 125 g/ha: 125 g ai/ha; for pest or weed control at 500 g/ha: 500 g ai/ha
In short: as §1

[4] = tested on: velvetleaf (Abutilon theophrasti); test: as above; settings: Abutilon theophrasti, 240 h, 0 to 100 scale (0 no effect, 100 complete control), approx. 10 d, read-out: Plant response rating, Velvetleaf; for pest or weed control at 125 g/ha: 125 g ai/ha; for pest or weed control at 500 g/ha: 500 g ai/ha
In short: as §1

[5] = tested on: chickweed (common chickweed, Stellaria media); test: Test C postemergence greenhouse herbicide test
Description: At the same time, plants selected from these crop and weed species and also barley (winter barley, Hordeum vulgare), canarygrass (Phalaris minor), windgrass (Apera spica-venti), deadnettle (henbit deadnettle, Lamium amplexicaule), and chickweed (common chickweed, Stellaria media) were planted in pots containing Redi-Earth® planting medium (Scotts Company, 14111 Scottslawn Road, Marysville, Ohio 43041) comprising spaghnum peat moss, vermiculite, wetting agent and starter nutrients and treated with postemergence applications of test chemicals formulated in the same manner. Plants ranged in height from 2 to 18 cm (1- to 4-leaf stage) for postemergence treatments. Treated plants and controls were maintained in a greenhouse for 13 to 15 d, after which time all species were compared to controls and visually evaluated. Plant response ratings, summarized in Table C, are based on a scale of 0 to 100 where 0 is no effect and 100 is complete control. A dash (-) response means no test result.

[6] = tested on: sedge, umbrella (small-flower umbrella sedge, Cyperus difformis); test: Test B flooded paddy test; settings: Cyperus difformis, 312 h; Flood, 125 g ai/ha; scale of 0 to 100, 0 is no effect, 100 is complete control; 13 to 15 d; read-out: Plant response rating, Sedge, Umbrella
In short: (§2)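 Visual ratings, 0 meaning no effect and 100 complete control, were made relative to untreated controls 13–15 d after treatment in a greenhouse. Treatment was by addition to paddy water 3 cm above the soil, maintained for the test, on 2-leaf-stage plants.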

[7] = tested on: barnyardgrass (Echinochloa crus-galli); test: Test B flooded paddy test; settings: Echinochloa crus-galli, 312 h; Flood, 125 g ai/ha; scale of 0 to 100, 0 is no effect, 100 is complete control; 13 to 15 d; read-out: Plant response rating, Barnyardgrass
In short: as §2

[8] = tested on: rice (Oryza sativa); test: Test B flooded paddy test; settings: Oryza sativa, 312 h; Flood, 125 g ai/ha; scale of 0 to 100, 0 is no effect, 100 is complete control; 13 to 15 d; read-out: Plant response rating, Rice
In short: as §2

[9] = tested on: ducksalad (Heteranthera limosa); test: Test B flooded paddy test; settings: Heteranthera limosa, 312 h; Flood, 125 g ai/ha; scale of 0 to 100, 0 is no effect, 100 is complete control; 13 to 15 d; read-out: Plant response rating, Ducksalad
In short: as §2

[10] = tested on: morningglory (Ipomoea spp.); test: Test A pre-/postemergence greenhouse herbicide test; settings: Ipomoea, 240 h, 0 to 100 scale (0 no effect, 100 complete control), approx. 10 d, read-out: Plant response rating, Morningglory; for pest or weed control at 125 g/ha: 125 g ai/ha; for pest or weed control at 500 g/ha: 500 g ai/ha
In short: as §1

Structure (SMILES): Cc1cc(=O)n(-c2ccc(F)cc2)nc1Cc1ccnc(C(F)(F)F)c1 [Compound 1, 2-(4-fluorophenyl)-5-methyl-6-[[2-(trifluoromethyl)-4-pyridinyl]methyl]-3(2H)-pyridazinone]
- pest or weed control at 125 g/ha ([1]; post-emergence, Postemergence): 90%
- pest or weed control at 500 g/ha ([1]; post-emergence, Postemergence): 100%
- pest or weed control at 125 g/ha ([1]; pre-emergence, Preemergence): 100%
- pest or weed control at 500 g/ha ([1]; pre-emergence, Preemergence): 100%
- plant injury at 125 g/ha ([2]; post-emergence, Postemergence): 60%
- plant injury at 500 g/ha ([2]; post-emergence, Postemergence): 90%
- plant injury at 125 g/ha ([2]; pre-emergence, Preemergence): 0%
- plant injury at 500 g/ha ([2]; pre-emergence, Preemergence): 90%
- pest or weed control at 125 g/ha ([3]; post-emergence, Postemergence): 90%
- pest or weed control at 500 g/ha ([3]; post-emergence, Postemergence): 100%
- pest or weed control at 125 g/ha ([3]; pre-emergence, Preemergence): 100%
- pest or weed control at 500 g/ha ([3]; pre-emergence, Preemergence): 100%
- pest or weed control at 125 g/ha ([4]; post-emergence, Postemergence): 40%
- pest or weed control at 500 g/ha ([4]; post-emergence, Postemergence): 100%
- pest or weed control at 125 g/ha ([4]; pre-emergence, Preemergence): 0%
- pest or weed control at 500 g/ha ([4]; pre-emergence, Preemergence): 90%
- Plant response rating ([5]; 31 g ai/ha): 40
- Plant response rating ([5]; 62 g ai/ha): 45
- Plant response rating ([5]; 125 g ai/ha): 60
- Plant response rating ([5]; 250 g ai/ha): 90
- pest or weed control at 125 g/ha [6]: 80%
- pest or weed control at 125 g/ha [7]: 10%
- plant injury at 125 g/ha [8]: 20%
- pest or weed control at 125 g/ha [9]: 60%

Structure (SMILES): Cc1cc(=O)n(-c2ccc(C(F)(F)F)cc2)nc1Cc1ccnc(C(F)(F)F)c1 [Compound 2, 5-methyl-2-[4-(trifluoromethyl)phenyl]-6-[[2-(trifluoromethyl)-4-pyridinyl]methyl]-3(2H)-pyridazinone]
- pest or weed control at 125 g/ha ([1]; post-emergence, Postemergence): 80%
- pest or weed control at 500 g/ha ([1]; post-emergence, Postemergence): 100%
- pest or weed control at 125 g/ha ([1]; pre-emergence, Preemergence): 100%
- pest or weed control at 500 g/ha ([1]; pre-emergence, Preemergence): 100%
- plant injury at 125 g/ha ([2]; post-emergence, Postemergence): 40%
- plant injury at 500 g/ha ([2]; post-emergence, Postemergence): 80%
- plant injury at 125 g/ha ([2]; pre-emergence, Preemergence): 0%
- plant injury at 500 g/ha ([2]; pre-emergence, Preemergence): 40%
- pest or weed control at 125 g/ha ([3]; post-emergence, Postemergence): 80%
- pest or weed control at 500 g/ha ([3]; post-emergence, Postemergence): 100%
- pest or weed control at 125 g/ha ([3]; pre-emergence, Preemergence): 100%
- pest or weed control at 500 g/ha ([3]; pre-emergence, Preemergence): 100%
- pest or weed control at 125 g/ha ([4]; post-emergence, Postemergence): 50%
- pest or weed control at 500 g/ha ([4]; post-emergence, Postemergence): 100%
- pest or weed control at 125 g/ha ([4]; pre-emergence, Preemergence): 20%
- pest or weed control at 500 g/ha ([4]; pre-emergence, Preemergence): 50%
- Plant response rating ([5]; 31 g ai/ha): 60
- Plant response rating ([5]; 62 g ai/ha): 70
- Plant response rating ([5]; 125 g ai/ha): 90
- Plant response rating ([5]; 250 g ai/ha): 90
- pest or weed control at 125 g/ha [6]: 80%
- pest or weed control at 125 g/ha [7]: 0%
- plant injury at 125 g/ha [8]: 0%
- pest or weed control at 125 g/ha [9]: 10%

Structure (SMILES): Cc1cc(Oc2ccnc(C(F)(F)F)c2)nn(-c2ccc(C(F)(F)F)cc2)c1=O [Compound 6, 4-methyl-2-[4-(trifluoromethyl)phenyl]-6-[[2-(trifluoromethyl)-4-pyridinyl]oxy]-3(2H)-pyridazinone]
- pest or weed control at 125 g/ha ([10]; post-emergence, Postemergence): 80%
- pest or weed control at 500 g/ha ([10]; post-emergence, Postemergence): 100%
- pest or weed control at 125 g/ha ([10]; pre-emergence, Preemergence): 80%
- pest or weed control at 500 g/ha ([10]; pre-emergence, Preemergence): 90%
- pest or weed control at 125 g/ha ([1]; post-emergence, Postemergence): 80%
- pest or weed control at 500 g/ha ([1]; post-emergence, Postemergence): 90%
- pest or weed control at 125 g/ha ([1]; pre-emergence, Preemergence): 100%
- pest or weed control at 500 g/ha ([1]; pre-emergence, Preemergence): 100%
- plant injury at 125 g/ha ([2]; post-emergence, Postemergence): 40%
- plant injury at 500 g/ha ([2]; post-emergence, Postemergence): 50%
- plant injury at 125 g/ha ([2]; pre-emergence, Preemergence): 10%
- plant injury at 500 g/ha ([2]; pre-emergence, Preemergence): 30%
- pest or weed control at 125 g/ha ([3]; post-emergence, Postemergence): 80%
- pest or weed control at 500 g/ha ([3]; post-emergence, Postemergence): 100%
- pest or weed control at 125 g/ha ([3]; pre-emergence, Preemergence): 100%
- pest or weed control at 500 g/ha ([3]; pre-emergence, Preemergence): 100%
- pest or weed control at 125 g/ha ([4]; post-emergence, Postemergence): 100%
- pest or weed control at 500 g/ha ([4]; post-emergence, Postemergence): 100%
- pest or weed control at 125 g/ha ([4]; pre-emergence, Preemergence): 70%
- pest or weed control at 500 g/ha ([4]; pre-emergence, Preemergence): 80%
- Plant response rating ([5]; 31 g ai/ha): 80
- Plant response rating ([5]; 62 g ai/ha): 95
- Plant response rating ([5]; 125 g ai/ha): 95
- Plant response rating ([5]; 250 g ai/ha): 98
- pest or weed control at 125 g/ha [6]: 0%
- pest or weed control at 125 g/ha [7]: 0%
- plant injury at 125 g/ha [8]: 0%
- pest or weed control at 125 g/ha [9]: 0%

Structure (SMILES): CCOc1cc(=O)n(-c2ccc(F)cc2)nc1Cc1ccnc(C(F)(F)F)c1 [Compound 25, 5-ethoxy-2-(4-fluorophenyl)-6-[[2-(trifluoromethyl)-4-pyridinyl]methyl]-3 (2H)-pyridazinone]
- pest or weed control at 125 g/ha ([10]; post-emergence, Postemergence): 40%
- pest or weed control at 500 g/ha ([10]; post-emergence, Postemergence): 90%
- pest or weed control at 125 g/ha ([10]; pre-emergence, Preemergence): 30%
- pest or weed control at 500 g/ha ([10]; pre-emergence, Preemergence): 90%
- pest or weed control at 125 g/ha ([1]; post-emergence, Postemergence): 80%
- pest or weed control at 500 g/ha ([1]; post-emergence, Postemergence): 90%
- pest or weed control at 125 g/ha ([1]; pre-emergence, Preemergence): 100%
- pest or weed control at 500 g/ha ([1]; pre-emergence, Preemergence): 100%
- plant injury at 125 g/ha ([2]; post-emergence, Postemergence): 60%
- plant injury at 500 g/ha ([2]; post-emergence, Postemergence): 70%
- plant injury at 125 g/ha ([2]; pre-emergence, Preemergence): 30%
- plant injury at 500 g/ha ([2]; pre-emergence, Preemergence): 60%
- pest or weed control at 125 g/ha ([3]; post-emergence, Postemergence): 70%
- pest or weed control at 500 g/ha ([3]; post-emergence, Postemergence): 90%
- pest or weed control at 125 g/ha ([3]; pre-emergence, Preemergence): 100%
- pest or weed control at 500 g/ha ([3]; pre-emergence, Preemergence): 100%
- pest or weed control at 125 g/ha ([4]; post-emergence, Postemergence): 60%
- pest or weed control at 500 g/ha ([4]; post-emergence, Postemergence): 100%
- pest or weed control at 125 g/ha ([4]; pre-emergence, Preemergence): 40%
- pest or weed control at 500 g/ha ([4]; pre-emergence, Preemergence): 100%
- pest or weed control at 125 g/ha [6]: 75%
- pest or weed control at 125 g/ha [7]: 0%
- plant injury at 125 g/ha [8]: 0%
- pest or weed control at 125 g/ha [9]: 0%
